The test system of test [1] is pSLP76(S376) level in Jurkat cell line. Description: Cellular pSLP76(S376) HTRF Assay. Format: cell-based. As to conditions: Homo sapiens, Jurkat, Jurkat cells, 2 h compound treatment, stimulated with 0.05 μg/mL anti-human CD3 (OKT3) for 30 min.
Test [2] deals with HPK1 kinase (aal-346. Life Technologies) (Homo sapiens (Human), UniProt Q92918). Description: HPK Kinase Activity Assay at 1 mM ATP (TR-FRET). Format: biochemical. As to conditions: HPK1 kinase 40 nM, 0.5 μM STK1 substrate, read-out: Enzymatic activity IC50.
Chain of HPK1 kinase (aal-346. Life Technologies) (Q92918 1-346): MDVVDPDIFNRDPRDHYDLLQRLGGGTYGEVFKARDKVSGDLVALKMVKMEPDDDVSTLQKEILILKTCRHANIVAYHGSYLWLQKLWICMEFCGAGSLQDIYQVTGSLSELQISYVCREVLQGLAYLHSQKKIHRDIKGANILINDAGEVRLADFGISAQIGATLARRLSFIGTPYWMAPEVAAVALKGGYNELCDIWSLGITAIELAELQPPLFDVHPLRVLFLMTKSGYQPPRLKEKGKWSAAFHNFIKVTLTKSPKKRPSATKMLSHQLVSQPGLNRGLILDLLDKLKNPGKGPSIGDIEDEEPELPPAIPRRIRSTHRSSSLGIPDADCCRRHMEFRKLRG

Consider `CN1CCC(n2cc(Oc3nc(-c4cc(N5CC6(COC6)C5)cc(C5(O)COC5)c4)cnc3N)cn2)CC1` [Example A78, 3-(3-(5-amino-6-((1-(1-methylpiperidin-4-yl)-1H-pyrazol-4-yl)oxy)pyrazin-2-yl)-5-(2-oxa-6-azaspiro[3.3]heptan-6-yl)phenyl)oxetan-3-ol], for which the IC50 in test [1] was 51 nM; in test [2], 5.5 nM.

In the case of `CN1CCC(n2cc(Oc3nc(-c4cc(C5CCOCC5)cc(C5(O)COC5)c4)cnc3N)cn2)CC1` [Example A79, 3-(3-(5-amino-6-((1-(1-methylpiperidin-4-yl)-1H-pyrazol-4-yl)oxy)pyrazin-2-yl)-5-(tetrahydro-2H-pyran-4-yl)phenyl)oxetan-3-ol], the IC50 in test [1] was 71 nM; in test [2], 12 nM.

Consider `C[C@@H]1COCCN1c1cc(-c2cnc(N)c(Oc3cnn(C4CCN(C)CC4)c3)n2)cc([C@@]2(O)CCOC2)c1` [Example A80A, (S)-3-(3-(5-amino-6-((1-(1-methylpiperidin-4-yl)-1H-pyrazol-4-yl)oxy)pyrazin-2-yl)-5-((R)-3-methylmorpholino)phenyl)tetrahydrofuran-3-ol], for which the IC50 came out at 194 nM in test [1] and 29 nM in test [2].

`C[C@@H]1COCCN1c1cc(-c2cnc(N)c(Oc3cnn(C4CCN(C)CC4)c3)n2)cc([C@]2(O)CCOC2)c1` [Example A80B, (R)-3-(3-(5-amino-6-((1-(1-methylpiperidin-4-yl)-1H-pyrazol-4-yl)oxy)pyrazin-2-yl)-5-((R)-3-methylmorpholino)phenyl)tetrahydrofuran-3-ol]: the IC50 in test [1] was 48 nM; in test [2], 5.4 nM.

With `CC#Cc1c(C)cc(-c2cnc(N)c(Oc3cnn(C4CCN(C)CC4)c3)n2)cc1C1(O)COC1` [Example A81, 3-(5-(5-amino-6-((1-(1-methylpiperidin-4-yl)-1H-pyrazol-4-yl)oxy)pyrazin-2-yl)-3-methyl-2-(prop-1-yn-1-yl)phenyl)oxetan-3-ol], the IC50 in test [1] is 72 nM; in test [2], 37 nM.

Regarding `COCc1cc(-c2cnc(N)c(Oc3cnn(C4CCN(C)CC4)c3)n2)cc(C2(O)COC2)c1` [Example A82, 3-(3-(5-amino-6-((1-(1-methylpiperidin-4-yl)-1H-pyrazol-4-yl)oxy)pyrazin-2-yl)-5-(methoxymethyl)phenyl)oxetan-3-ol], the half-maximal inhibitory concentration (IC50) in test [1] was determined as 125 nM; in test [2], 37 nM.

Turning to `Cc1cc(-c2cnc(N)c(Oc3cnn(C4CCN(C)CC4)c3)n2)cc(C2(O)CCOC2)c1N1CC2(COC2)C1` (centres unmarked) [Example A83, 3-(5-(5-amino-6-((1-(1-methylpiperidin-4-yl)-1H-pyrazol-4-yl)oxy)pyrazin-2-yl)-3-methyl-2-(2-oxa-6-azaspiro[3.3]heptan-6-yl)phenyl)tetrahydrofuran-3-ol], the IC50 is 105 nM in test [1] and 17 nM in test [2].

On to `Cc1cc(-c2cnc(N)c(Oc3cnn(C4CCN(C)CC4)c3)n2)cc(C2(O)COC2)c1Cl` [Example A84, 3-(5-(5-amino-6-((1-(1-methylpiperidin-4-yl)-1H-pyrazol-4-yl)oxy)pyrazin-2-yl)-2-chloro-3-methylphenyl)oxetan-3-ol], for which the results for the IC50 in test [1] and in test [2] were 83 nM and 58 nM, respectively.

With `CN1CCC(n2cc(Oc3nc(-c4cc(N5CCC[C@H]5CO)cc(C5(O)COC5)c4)cnc3N)cn2)CC1` [Example A85, (S)-3-(3-(5-amino-6-((1-(1-methylpiperidin-4-yl)-1H-pyrazol-4-yl)oxy)pyrazin-2-yl)-5-(2-(hydroxymethyl)pyrrolidin-1-yl)phenyl)oxetan-3-ol], the half-maximal inhibitory concentration (IC50) in test [1] came to 28 nM; in test [2], 3.7 nM.

With `Cc1cc(-c2cnc(N)c(Oc3cnn(C4CCN(C)CC4)c3)n2)cc(C2(O)COC2)c1C1=CCOCC1` [Example A86, 3-(5-(5-amino-6-((1-(1-methylpiperidin-4-yl)-1H-pyrazol-4-yl)oxy)pyrazin-2-yl)-2-(3,6-dihydro-2H-pyran-4-yl)-3-methylphenyl)oxetan-3-ol], the values for the IC50 in test [1] and in test [2] were 130 nM and 40 nM, respectively.

For `Cc1cc(-c2cnc(N)c(Oc3cnn(C4CCN(C)CC4)c3)n2)cc(C2(O)COC2)c1C1OCCO1` [Example A87, 3-(5-(5-amino-6-((1-(1-methylpiperidin-4-yl)-1H-pyrazol-4-yl)oxy)pyrazin-2-yl)-2-(1,3-dioxolan-2-yl)-3-methylphenyl)oxetan-3-ol], the results for the IC50 in test [1] and in test [2] were 89 nM and 56 nM, respectively.

For the compound `Cc1cc(-c2cnc(N)c(Oc3cnn(C4CCN(C)CC4)c3)n2)cc(C2(O)CCCOC2)c1` (centres unmarked) [Example A88, 3-(3-(5-amino-6-((1-(1-methylpiperidin-4-yl)-1H-pyrazol-4-yl)oxy)pyrazin-2-yl)-5-methylphenyl)tetrahydro-2H-pyran-3-ol], the IC50 in test [1] turned out to be 85 nM; in test [2] it was 34 nM.

With `C[C@@H]1COCCN1c1cc(-c2cnc(N)c(Oc3cnn(C4CCN(C)CC4)c3)n2)cc(C2(O)CCCOC2)c1` (stereo partly drawn) [Example A89, 3-(3-(5-amino-6-((1-(1-methylpiperidin-4-yl)-1H-pyrazol-4-yl)oxy)pyrazin-2-yl)-5-((R)-3-methylmorpholino)phenyl)tetrahydro-2H-pyran-3-ol], the IC50 in test [1] amounted to 64 nM; in test [2] it was 11 nM.

As to `CN1CCC(n2cc(Oc3nc(-c4cc(N5CCCC5=O)cc(C5(O)COC5)c4)cnc3N)cn2)CC1` [Example A91, 1-(3-(5-amino-6-((1-(1-methylpiperidin-4-yl)-1H-pyrazol-4-yl)oxy)pyrazin-2-yl)-5-(3-hydroxyoxetan-3-yl)phenyl)pyrrolidin-2-one], the figures for the IC50 in test [1] and in test [2] were 199 nM and 11 nM, respectively.

With `Cc1cc(-c2cnc(N)c(Oc3cnn(C4CCN(C)CC4)c3)n2)cc(C2(O)CCOC2)c1N1CC2(CCOCC2)C1` (centres unmarked) [Example A92, 3-(5-(5-amino-6-((1-(1-methylpiperidin-4-yl)-1H-pyrazol-4-yl)oxy)pyrazin-2-yl)-3-methyl-2-(7-oxa-2-azaspiro[3.5]nonan-2-yl)phenyl)tetrahydrofuran-3-ol], the values for the concentration for half-maximal inhibition (IC50) in test [1] and in test [2] were 156 nM and 7 nM, respectively.

In the case of `Cc1cc(-c2cnc(N)c(Oc3cnn(C4CCN(C)CC4)c3)n2)cc(C2(O)CCOC2)c1F` (centres unmarked) [Example A93, 3-(5-(5-amino-6-((1-(1-methylpiperidin-4-yl)-1H-pyrazol-4-yl)oxy)pyrazin-2-yl)-2-fluoro-3-methylphenyl)tetrahydrofuran-3-ol], the IC50 came to 164 nM in test [1] and 37 nM in test [2].

In the case of `CC1OCCC1(O)c1cc(-c2cnc(N)c(Oc3cnn(C4CCN(C)CC4)c3)n2)cc(N2CCOC[C@H]2C)c1` (stereo partly drawn) [Example A94, 3-(3-(5-amino-6-((1-(1-methylpiperidin-4-yl)-1H-pyrazol-4-yl)oxy)pyrazin-2-yl)-5-((R)-3-methylmorpholino)phenyl)-2-methyltetrahydrofuran-3-ol], the IC50 in test [1] is 119 nM; in test [2], 15 nM.

For the compound `Cc1cc(-c2cnc(N)c(Oc3cnn(C4CCN(C)CC4)c3)n2)cc(C2(O)CCOC2)c1N1CCOCC1` (centres unmarked) [Example A96, 3-(5-(5-amino-6-((1-(1-methylpiperidin-4-yl)-1H-pyrazol-4-yl)oxy)pyrazin-2-yl)-3-methyl-2-morpholinophenyl)tetrahydrofuran-3-ol], the IC50 in test [1] worked out at 117 nM; in test [2], 36 nM.

For `Cc1cc(-c2cnc(N)c(Oc3cnn(C4CCN(C)CC4)c3)n2)cc([C@@]2(O)CCOC2)c1N1CCOCC1` [Example A97A, (S)-3-(5-(5-amino-6-((1-(1-methylpiperidin-4-yl)-1H-pyrazol-4-yl)oxy)pyrazin-2-yl)-3-methyl-2-morpholinophenyl)tetrahydrofuran-3-ol], the IC50 in test [1] was 78 nM; in test [2], 18 nM.

As for `Cc1cc(-c2cnc(N)c(Oc3cnn(C4CCN(C)CC4)c3)n2)cc([C@]2(O)CCOC2)c1N1CCOCC1` [Example A97B, (R)-3-(5-(5-amino-6-((1-(1-methylpiperidin-4-yl)-1H-pyrazol-4-yl)oxy)pyrazin-2-yl)-3-methyl-2-morpholinophenyl)tetrahydrofuran-3-ol], the IC50 in test [1] came out at 154 nM; in test [2] it was 30 nM.

Turning to `CN1CCC(n2cc(Oc3nc(-c4cc(N5CCCOCC5)cc(C5(O)CCOC5)c4)cnc3N)cn2)CC1` (centres unmarked) [Example A98, 3-(3-(5-amino-6-((1-(1-methylpiperidin-4-yl)-1H-pyrazol-4-yl)oxy)pyrazin-2-yl)-5-(1,4-oxazepan-4-yl)phenyl)tetrahydrofuran-3-ol], the IC50 in test [1] is 73 nM; in test [2], 9.2 nM.

`CCN(CC)c1cc(-c2cnc(N)c(Oc3cnn(C4CCN(C)CC4)c3)n2)cc(CNC)n1` [Example B1, 5-(2-(diethylamino)-6-((methylamino)methyl)pyridin-4-yl)-3-((1-(1-methylpiperidin-4-yl)-1H-pyrazol-4-yl)oxy)pyrazin-2-amine]: the half-inhibitory concentration (IC50) was found to be 181 nM in test [1] and 26 nM in test [2].

For `CNCc1cc(-c2cnc(N)c(Oc3cnn(C4CCN(C)CC4)c3)n2)cc(N2CCC[C@H]2C)n1` [Example B2, (R)-5-(2-((methylamino)methyl)-6-(2-methylpyrrolidin-1-yl)pyridin-4-yl)-3-((1-(1-methylpiperidin-4-yl)-1H-pyrazol-4-yl)oxy)pyrazin-2-amine], the half-inhibitory concentration (IC50) in test [1] came out at 121 nM; in test [2], 12 nM.

In the case of `C[C@@H]1COCCN1c1cc(-c2cnc(N)c(Oc3cnn(C4CCN(C)CC4)c3)n2)cc(C(C)(C)O)n1` [Example B3, (R)-2-(4-(5-amino-6-((1-(1-methylpiperidin-4-yl)-1H-pyrazol-4-yl)oxy)pyrazin-2-yl)-6-(3-methylmorpholino)pyridin-2-yl)propan-2-ol], the results for the IC50 in test [1] and in test [2] were 229 nM and 11 nM, respectively.

In the case of `C[C@@H]1COCCN1c1cc(-c2cnc(N)c(Oc3cnn(C4CCN(C)CC4)c3)n2)cc(C2(O)COC2)n1` [Example B4, (R)-3-(4-(5-amino-6-(1-(1-methylpiperidin-4-yl)-1H-pyrazol-4-yloxy)pyrazin-2-yl)-6-(3-methylmorpholino)pyridin-2-yl)oxetan-3-ol], the figures for the IC50 in test [1] and in test [2] were 102 nM and 31 nM, respectively.

(Values after patent US20240317714A1, “3-[(1H-PYRAZOL-R-YL)OXY]PYRAZIN-2-AMINE COMPOUNDS AS HPK1 INHIBITOR AND USE THEREOF” (BeiGene, Ltd., priority 2020, published 2024).)
